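96-well plates; 48 h exposure; 5 concentrations. Endpoints by linear interpolation between flanking doses. Not reached: highest tested concentration assigned. The concentration for 50% growth inhibition is given as GI50.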 Active and inactive are the calls of the source. Cut-off read from the data, not from the text of the source: active = GI50 up to about 1.1 µM and inactive = higher.
How the values were obtained:
Assay in all cases: inhibition of tumour cell growth, NCI panel, 48 h
786-0 = system: 786-0
A498 = system: A498
A549 = system: A549
ACHN = system: ACHN
BT-549 = system: BT-549
CCRF-CEM = system: CCRF-CEM
COLO 205 = system: COLO 205
DU-145 = system: DU-145
EKVX = system: EKVX
HCC 2998 = system: HCC 2998
HCT-116 = system: HCT-116
HCT-15 = system: HCT-15
HL-60 = system: HL-60
HOP-62 = system: HOP-62
HOP-92 = system: HOP-92
HT-29 = system: HT-29
Hs-578T = system: Hs-578T
IGROV-1 = system: IGROV-1
K562 = system: K562
KM12 = system: KM12
LOX IMVI = system: LOX IMVI
M14 = system: M14
MCF7 = system: MCF7
MDA-MB-231 = system: MDA-MB-231
MDA-MB-435 = system: MDA-MB-435
MDA-N = system: MDA-N
MOLT-4 = system: MOLT-4
NCI-H226 = system: NCI-H226
NCI-H23 = system: NCI-H23
NCI-H522 = system: NCI-H522
NCI/ADR-RES = system: NCI/ADR-RES
OVCAR-3 = system: OVCAR-3
OVCAR-5 = system: OVCAR-5
OVCAR-8 = system: OVCAR-8
PC-3 = system: PC-3
RPMI-8226 = system: RPMI-8226
RXF 393 = system: RXF 393
SF-268 = system: SF-268
SF-295 = system: SF-295
SF-539 = system: SF-539
SK-MEL-2 = system: SK-MEL-2
SK-MEL-5 = system: SK-MEL-5
SN12C = system: SN12C
SNB-19 = system: SNB-19
SNB-75 = system: SNB-75
SR = system: SR
SW-620 = system: SW-620
T47D = system: T47D
TK-10 = system: TK-10
U-251 = system: U-251
UACC-257 = system: UACC-257
UACC-62 = system: UACC-62
UO-31 = system: UO-31
CAKI-1 = system: CAKI-1
Malme-3M = system: Malme-3M
NCI-H460 = system: NCI-H460
OVCAR-4 = system: OVCAR-4
SK-MEL-28 = system: SK-MEL-28

Measured: GI50

O=C(O)CCC(NC(=O)c1ccc(Nc2nc3ccc(C(F)(F)F)cc3nc2C(=O)O)cc1)C(=O)O (configuration not stated)
inactive: 786-0 > 100 µM | A498 > 100 µM | A549 > 100 µM | ACHN > 100 µM | BT-549 > 100 µM | CCRF-CEM > 100 µM | COLO 205 > 100 µM | DU-145 > 100 µM | EKVX > 100 µM | HCC 2998 > 100 µM | HCT-116 > 100 µM | HL-60 > 100 µM | HOP-62 > 100 µM | HOP-92 > 100 µM | HT-29 > 100 µM | Hs-578T > 100 µM | IGROV-1 > 100 µM | K562 > 100 µM | KM12 > 100 µM | LOX IMVI > 100 µM | M14 > 100 µM | MCF7 > 100 µM | MDA-MB-231 > 100 µM | MDA-MB-435 > 100 µM | MDA-N > 100 µM | MOLT-4 > 100 µM | NCI-H226 > 100 µM | NCI-H23 > 100 µM | NCI-H522 > 100 µM | NCI/ADR-RES > 100 µM | OVCAR-3 69.8 µM | OVCAR-5 > 100 µM | OVCAR-8 > 100 µM | PC-3 > 100 µM | RPMI-8226 > 100 µM | RXF 393 > 100 µM | SF-268 > 100 µM | SF-295 > 100 µM | SF-539 > 100 µM | SK-MEL-2 > 100 µM | SK-MEL-5 > 100 µM | SN12C > 100 µM | SNB-19 > 100 µM | SNB-75 > 100 µM | SR > 100 µM | SW-620 > 100 µM | T47D > 100 µM | TK-10 > 100 µM | U-251 > 100 µM | UACC-257 > 100 µM | UACC-62 > 100 µM | UO-31 > 100 µM
> 100 µM: HCT-15

Cc1cc2c(cc1C)C(=O)C1(C2)Cc2c(C)ccc(C)c2C1=O (configuration not stated)
inactive: 786-0 > 100 µM | A549 > 100 µM | ACHN > 100 µM | BT-549 > 100 µM | CAKI-1 > 100 µM | CCRF-CEM > 100 µM | COLO 205 > 100 µM | DU-145 > 100 µM | EKVX > 100 µM | HCC 2998 > 100 µM | HCT-116 > 100 µM | HL-60 > 100 µM | HOP-92 > 100 µM | Hs-578T 84.5 µM | IGROV-1 98.4 µM | K562 > 100 µM | KM12 > 100 µM | LOX IMVI > 100 µM | M14 > 100 µM | MCF7 > 100 µM | MDA-MB-231 > 100 µM | MDA-MB-435 > 100 µM | MDA-N > 100 µM | MOLT-4 > 100 µM | Malme-3M 84.9 µM | NCI-H226 > 100 µM | NCI-H460 > 100 µM | NCI-H522 > 100 µM | NCI/ADR-RES > 100 µM | OVCAR-3 > 100 µM | OVCAR-4 > 100 µM | OVCAR-5 > 100 µM | OVCAR-8 > 100 µM | PC-3 > 100 µM | RPMI-8226 > 100 µM | RXF 393 84.7 µM | SF-268 > 100 µM | SF-295 > 100 µM | SF-539 > 100 µM | SK-MEL-28 > 100 µM | SK-MEL-2 > 100 µM | SK-MEL-5 > 100 µM | SN12C > 100 µM | SNB-19 > 100 µM | SNB-75 > 100 µM | SR > 100 µM | SW-620 > 100 µM | T47D 25.2 µM | TK-10 > 100 µM | U-251 > 100 µM | UACC-257 > 100 µM | UACC-62 > 100 µM | UO-31 > 100 µM
> 100 µM: HCT-15

Source: ChEMBL document CHEMBL1201862, “PubChem BioAssay data set” (2004)
